Our source for the IC50 values is patent publication US5837687A, “Azapeptide derivative” (Fujirebio Inc., priority 1994, dated 1998).

The assay addresses T1, NKA receptor (Mesocricetus auratus, UniProt P51144).
T1 construct: from tissue; host or cells: hamster respiratory tract (trachea) ring specimens
T1 sequence (P51144 1-384): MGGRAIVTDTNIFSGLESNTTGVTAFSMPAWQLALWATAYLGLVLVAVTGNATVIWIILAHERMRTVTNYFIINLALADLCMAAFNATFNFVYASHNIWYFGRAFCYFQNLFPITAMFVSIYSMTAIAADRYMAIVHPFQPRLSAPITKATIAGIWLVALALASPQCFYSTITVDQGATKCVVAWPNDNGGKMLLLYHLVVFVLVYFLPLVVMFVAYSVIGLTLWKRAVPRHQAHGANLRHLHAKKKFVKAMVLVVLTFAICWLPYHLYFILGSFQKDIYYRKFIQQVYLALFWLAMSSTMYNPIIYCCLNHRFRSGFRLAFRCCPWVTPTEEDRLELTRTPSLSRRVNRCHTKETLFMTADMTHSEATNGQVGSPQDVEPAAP
In words: Activity to constriction of hamster respiratory tracts caused by NKA (isolated tissue, tension). Type of assay: cell-based. On the procedure:
The activity of the azapeptide derivative of the present invention to a NKA receptor was evaluated by the following method.
(1) Activity to constriction of hamster respiratory tracts caused by NKA
Respiratory tracts were taken out from male Syrian strain Golden hamsters having a body weight of 100 to 180 g, and cyclic specimens having a width of 3 to 6 mm were prepared. The specimens were incubated at 37° C. and suspended by loading a static tension of 0.5 g, in a reaction tank charged with 15 ml of a Tyrode solution (137 mM of NaCl, 2.7 mM of KCl, 1.8 mM of CaCl2, 1.02 mM of MgCl2, 11.9 mM of NaHCO3, 0.42 mM of NaH2 PO4 and 5.5 mM of glucose) in which 95% O2 -5% CO2 had been passed.
The compound to be tested was charged into the reaction tank and maintained for 5 minutes. 1×10^-7 M of NKA was charged into the reaction tank, and tension caused thereby was recorded. The examined effect of the tested compound as an antagonist was shown by IC50.

Turning to `CC(C)(C)OC(=O)N[C@@H](CCC(N)=O)C(=O)N[C@@H](Cc1c[nH]c2ccccc12)C(=O)NN(Cc1ccc(F)cc1)C(=O)NCCOCc1ccccc1` [Example 30 (2), Boc-Gln-Trp-AzPhe(4-F)-NH(CH2)2 OCH2 Ph], the midpoint of inhibition, the IC50, lay at 1.1 nM.

As to `CSCC[C@H](NC(=O)OC(C)(C)C)C(=O)N[C@@H](Cc1c[nH]c2ccccc12)C(=O)NN(Cc1ccccc1)C(=O)NCCOCc1ccccc1` [Example 11, Boc-Met-Trp-AzPhe-NH(CH2)2 OCH2 Ph], the IC50 is 8.9 nM.

Compound `Cc1ccc(C)c(CN(NC(=O)[C@H](Cc2c[nH]c3ccccc23)NC(=O)[C@H](CCC(N)=O)NC(=O)NC(C)(C)C)C(=O)NCCOCc2ccccc2)c1` [Example 38 (3), t-Bu-NHCO-Gln-Trp-AzPhe(2,5-diMe)-NH(CH2)2 OCH2 Ph] displayed an IC50 of 0.68 nM.

As for `CC(C)c1ccc(CN(NC(=O)[C@H](Cc2c[nH]c3ccccc23)NC(=O)[C@H](CCC(N)=O)NC(=O)NC(C)(C)C)C(=O)NCCOCc2ccccc2)cc1` [Example 36 (3), t-Bu-NHCO-Gln-Trp-AzPhe(4-iPr)-NH(CH2)2 OCH2 Ph], the IC50 was 69 nM.

Regarding `CC(C)(C)NC(=O)N[C@@H](CCC(N)=O)C(=O)N[C@@H](Cc1c[nH]c2ccccc12)C(=O)NN(Cc1ccccc1)C(=O)NCCOC(c1ccccc1)c1ccccc1` [Example 44 (2), t-Bu-NHCO-Gln-Trp-AzPhe-NH(CH2)2 O-benzhydryl], the IC50 was found to be 230 nM.

Consider `CC(C)(C)OC(=O)N[C@@H](CC(=O)OCc1ccccc1)C(=O)N[C@@H](CCC(N)=O)C(=O)N[C@@H](Cc1c[nH]c2ccccc12)C(=O)NN(Cc1ccccc1)C(=O)N1CCOCC1` [Example 26 (3), Boc-Asp(OBzl)-Gln-Trp-AzPhe-M], for which the IC50 is 830 nM.

With `CC(C)(C)OC(=O)N[C@@H](CCS(C)(=O)=O)C(=O)N[C@@H](Cc1c[nH]c2ccccc12)C(=O)NN(Cc1ccccc1)C(=O)NCCOCc1ccccc1` [Example 9, Boc-Met(O2)-Trp-AzPhe-NH (CH2)2 OCH2 Ph], the IC50 turned out to be 1.4 nM.

`NC(=O)CC[C@H](NC(=O)C1CCCC1)C(=O)N[C@@H](Cc1c[nH]c2ccccc12)C(=O)NN(Cc1ccccc1)C(=O)NCCOCc1ccccc1` [Example 5, cyPent-CO-Gln-Trp-AzPhe-NH(CH2)2 OCH2 Ph] showed an IC50 of 2.2 nM.

Compound `CC(C)(C)OC(=O)N[C@@H](CC(=O)OCc1ccccc1)C(=O)N[C@@H](Cc1c[nH]c2ccccc12)C(=O)NN(Cc1ccccc1)C(=O)NCCOCc1ccccc1` [Example 16 (1), Boc-Asp(OBzl)-Trp-AzPhe-NH(CH2)2 OCH2 Ph] showed an IC50 of 13 nM.

`COc1ccc(CNC(=O)N(Cc2ccc(OCc3ccccc3)cc2)NC(=O)[C@H](Cc2c[nH]c3ccccc23)NC(=O)[C@H](CCC(N)=O)NC(=O)OC(C)(C)C)c(OC)c1` [Example 32 (2), Boc-Gln-Trp-AzTyr(CH2 Ph)-NHDmob] registered an IC50 of 7700 nM.

`CC(C)(C)NC(=O)N[C@@H](CCC(N)=O)C(=O)N[C@@H](Cc1c[nH]c2ccccc12)C(=O)NN(Cc1ccccc1C(F)(F)F)C(=O)NCCOCc1ccccc1` [Example 40 (3), t-Bu-NHCO-Gln-Trp-AzPhe(2-CF3)-NH(CH2)2 OCH2 Ph] came in with an IC50 of 0.31 nM.

As to `CC(C)(C)OC(=O)N[C@@H](CC(=O)OCc1ccccc1)C(=O)N[C@@H](CCC(N)=O)C(=O)N[C@H](Cc1c[nH]c2ccccc12)C(=O)NN(Cc1ccccc1)C(N)=O` [Example 27 (3), Boc-Asp(OBzl)-Gln-D-Trp-AzPhe-NH2], the IC50 came to 990 nM.

Turning to `CC(C)(C)OC(=O)N[C@@H](CC(=O)OCc1ccccc1)C(=O)N[C@@H](CCC(N)=O)C(=O)N[C@@H](Cc1c[nH]c2ccccc12)C(=O)NN(Cc1ccccc1)C(N)=O` [Example 1 (3), Boc-Asp(OBzl)-Gln-Trp-AzPhe-NH2], the midpoint of inhibition, the IC50, lay at 45 nM.

The compound `CNC(=O)N(Cc1ccccc1)NC(=O)[C@H](Cc1c[nH]c2ccccc12)NC(=O)[C@H](CCC(N)=O)NC(=O)[C@H](CC(=O)OCc1ccccc1)NC(=O)OC(C)(C)C` [Example 23 (3), Boc-Asp(OBzl)-Gln-Trp-AzPhe-NHCH3] had an IC50 of 78 nM.

In turn, `NC(=O)CC[C@H](NC(=O)NC1CCCC1)C(=O)N[C@@H](Cc1c[nH]c2ccccc12)C(=O)NN(Cc1ccccc1)C(=O)NCCOCc1ccccc1` [Example 8, cyPent-NHCO-Gln-Trp-AzPhe-NH (CH2)2 OCH2 Ph] had an IC50 of 0.7 nM.

Take `CC(C)(C)OC(=O)N[C@@H](CC(=O)OCc1ccccc1)C(=O)N[C@@H](CCC(N)=O)C(=O)N[C@@H](Cc1c[nH]c2ccccc12)C(=O)NN(Cc1ccccc1)C(=O)Nc1ccccc1` [Example 29 (3, Boc-Asp(OBzl)-Gln-Trp-AzPhe-NHPh]: the IC50 amounted to 190 nM.

In turn, `CC(C)(C)NC(=O)N[C@@H](CCC(N)=O)C(=O)N[C@@H](Cc1c[nH]c2ccccc12)C(=O)NN(Cc1ccccc1)C(=O)NCCOCc1ccc2ccccc2c1` [Example 41 (3), t-Bu-NHCO-Gln-Trp-AzPhe-NH(CH2)2 O-(2-naphthylmethyl)] came in with an IC50 of 20 nM.

The compound `CC(C)(C)OC(=O)N[C@@H](CC(=O)OCc1ccccc1)C(=O)N[C@@H](CCC(N)=O)C(=O)N[C@@H](Cc1c[nH]c2ccccc12)C(=O)NN(Cc1ccccc1)C(=O)NCc1ccccc1` [Example 20 (3), Boc-Asp(OBzl)-Gln-Trp-AzPhe-NHCH2 Ph] registered an IC50 of 1.7 nM.

`CC(C)(C)OC(=O)N[C@@H](CCC(N)=O)C(=O)N[C@@H](Cc1c[nH]c2ccccc12)C(=O)NN(Cc1ccccc1)C(=O)NCCOCc1ccccc1` [Example 2 (2), Boc-Gln-Trp-AzPhe-NH(CH2)2 OCH2 Ph] returned an IC50 of 0.66 nM.

`CC(C)CCC(=O)N[C@@H](CCC(N)=O)C(=O)N[C@@H](Cc1c[nH]c2ccccc12)C(=O)NN(Cc1ccccc1)C(=O)NCCOCc1ccccc1` [Example 3, i-Pent-CO-Gln-Trp-AzPhe-NH(CH2)2 OCH2 Ph] gave an IC50 of 0.6 nM.

`CC(C)CNC(=O)N(Cc1ccccc1)NC(=O)[C@H](Cc1c[nH]c2ccccc12)NC(=O)[C@H](CCC(N)=O)NC(=O)[C@H](CC(=O)OCc1ccccc1)NC(=O)OC(C)(C)C` [Example 25 (3), Boc-Asp(OBzl)-Gln-Trp-AzPhe-NHCH2 CH(CH3)2]: half-maximal inhibition (IC50) required 34 nM.

`CC(C)(C)OC(=O)N[C@@H](CC(=O)OCc1ccccc1)C(=O)N[C@@H](CCC(N)=O)C(=O)N[C@@H](Cc1c[nH]c2ccccc12)C(=O)NN(Cc1ccccc1)C(=O)NCc1ccc(F)cc1` [Example 17 (3), Boc-Asp(OBzl)-Gln-Trp-AzPhe-NHCH2 Ph(4-F)] showed an IC50 of 4.2 nM.

`Cc1ccc(CN(NC(=O)[C@H](Cc2c[nH]c3ccccc23)NC(=O)[C@H](CCC(N)=O)NC(=O)NC(C)(C)C)C(=O)NCCOCc2ccccc2)cc1` [Example 35 (3), t-Bu-NHCO-Gln-Trp-AzPhe(4-Me)-NH(CH2)2 OCH2 Ph] gave an IC50 of 0.82 nM.

Compound `CC(C)(C)OC(=O)N[C@@H](CCCNC(=N)N[N+](=O)[O-])C(=O)N[C@@H](Cc1c[nH]c2ccccc12)C(=O)NN(Cc1ccccc1)C(=O)NCCOCc1ccccc1` [Example 15, Boc-Arg(NO2)-Trp-AzPhe-NH(CH2)2 OCH2 Ph] gave an IC50 of 35 nM.

`CC(C)(C)OC(=O)N[C@@H](CC(=O)OCc1ccccc1)C(=O)N[C@@H](CCC(N)=O)C(=O)N[C@@H](Cc1c[nH]c2ccccc12)C(=O)NN(Cc1ccccc1)C(=O)NCCO` [Example 24 (2), Boc-Asp(OBzl)-Gln-Trp-AzPhe-NH(CH2)2 OH] came in with an IC50 of 46 nM.

Consider `CC(C)(C)OC(=O)N[C@@H](CCC(N)=O)C(=O)N[C@@H](Cc1c[nH]c2ccccc12)C(=O)NN(Cc1ccccc1)C(=O)NCCOCc1ccc(F)cc1` [Example 18 (2), Boc-Gln-Trp-AzPhe-NH(CH2)2 OCH2 Ph(4-F)], for which 5.6 nM corresponded to half-maximal inhibition (IC50).

Regarding `CC(C)(C)OC(=O)N[C@@H](CCC(N)=O)C(=O)N[C@@H](Cc1c[nH]c2ccccc12)C(=O)NN(Cc1ccccc1)C(=O)NCc1ccc(F)cc1` [Example 17 (2), Boc-Gln-Trp-AzPhe-NHCH2 Ph(4-F)], inhibition was half-maximal at 29 nM (IC50).

`NC(=O)CC[C@H](NC(=O)c1ccccc1)C(=O)N[C@@H](Cc1c[nH]c2ccccc12)C(=O)NN(Cc1ccccc1)C(=O)NCCOCc1ccccc1` [Example 4, Bz-Gln-Trp-AzPhe-NH(CH2)2 OCH2 Ph] displayed an IC50 of 2.3 nM.

In turn, `CC(C)(C)NC(=O)N[C@@H](CCC(N)=O)C(=O)N[C@@H](Cc1c[nH]c2ccccc12)C(=O)NN(Cc1ccccc1)C(=O)NCCOCc1cccnc1` [Example 42 (3), t-Bu-NHCO-Gln-Trp-AzPhe-NH(CH2)2 O-(3-pyridylmethyl)] had an IC50 of 16 nM.

In turn, `CC(C)(C)OC(=O)N[C@@H](CCCN)C(=O)N[C@@H](Cc1c[nH]c2ccccc12)C(=O)NN(Cc1ccccc1)C(=O)NCCOCc1ccccc1` [Example 13 (2), Boc-Orn-Trp-AzPhe-NH(CH2)2 OCH2 Ph] yielded an IC50 of 78 nM.

Compound `CC(C)(C)NC(=O)N[C@@H](CCC(N)=O)C(=O)N[C@@H](Cc1c[nH]c2ccccc12)C(=O)NN(Cc1ccccc1)C(=O)NCCOCc1ccccc1` [Example 6, t-Bu-NHCO-Gln-Trp-AzPhe-NH(CH2)2 OCH2 Ph] gave a 50% inhibitory concentration (IC50) of 0.6 nM.
